Results from patent US7196057B2, “Fusion proteins for insect control” (University of Durham, priority 2001, dated 2007).
Entries after “also recorded” stand apart in the source; their conditions may differ.

Legend:
[1] = test system: Vth instar L. oleracea larvae; assay: Insect bioassay 2A: artificial diet feeding, 3 days; type: in vivo, Lacanobia oleracea; conditions: 0.5% of dietary protein (0.5 mg/5 g diet), 3 days exposure, n=8
Experimental: (§1) A potato leaf based artificial diet (24) was used to assay recombinant proteins against newly moulted Vth stadium L. oleracea which were starved for 24 h prior to exposure to diets. To encourage feeding, sucrose was incorporated at 0.05% (w/w) in assays 2 A and B and at 0.5% (w/w) in assay 3. Individual larvae were maintained in clear plastic pots containing moist filter paper to prevent diet desiccation. Larval wet weights (−/+0.1 mg) were recorded before, during, and after exposure to treatments, and diet consumption was estimated on a wet weight basis. The amounts of recombinant proteins added to diets were based on activity values derived from agglutination assays.
Larvae (n=8 per treatment) were exposed for 3 days to control diet; control diet containing ammonia; diet containing native GNA at approx. 0.5% (w/w) of dietary protein: diet containing native GNA and synthetic Manse-AS at a total concentration of approx. 0.5% (w/w) (i.e. ratio of GNA: Manse-AS equivalent to FP and diet containing FP at approx. 0.5% (w/w) of dietary protein.

[2] = test system: Vth stadium L. oleracea larvae; assay: Insect bioassay 1: artificial diet feeding, 24 h; type: in vivo, Lacanobia oleracea; conditions: 1.5% of dietary protein (1.5 mg/5 g diet), 24 h exposure, n=7
Experimental: as §1, with “assays. Larvae (n=7 per treatment) were exposed to control diet; control diet containing ammonia (0.0002 v/w); diet containing recombinant GNA at a concentration of approx. 1.5% (w/w) of dietary protein (1.5 mg/5 g diet wet weight) and diet containing recombinant FP at a concentration of approx. 1.5% (w/w) of dietary protein for 24 h.” for “assays.”

Row | Substance | increase/decrease in mean wet weight of larvae [1] | mean increase/decrease in weight of larvae [2]
1 | GNA: Galanthus nivalis agglutinin (snowdrop lectin); standard GNA obtained from Vector Laboratories | four fold increase in weight; also recorded: fourfold increase in weight | more than 50%
2 | recombinant GNA: Galanthus nivalis agglutinin (snowdrop lectin), 109 residues, expressed in E. coli with N-terminal His tag, SEQ ID NO: 2 |  | more than 50%
